Test system: human immortalized podocytes inducibly expressing APOL1 G2
Assay: APOL1 G2 podocyte cell rescue assay (Example B4)
Type: cell-based
Details: Homo sapiens, differentiated human podocytes, doxycycline-induced APOL1 G2, CellTiter-Glo; geometric mean of at least 2 runs; † = single run
Procedure, shortened: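 Differentiated hTERT-immortalized podocytes (clone D10) with doxycycline-inducible C-terminally HiBiT-tagged APOL1 G2, 6,000 cells/well, treated with doxycycline plus 8-point 3-fold compound series (0.4% DMSO) for 95 h at 37 °C. Viability by CellTiter-Glo luminescence; EC50 as geometric mean of ≥2 runs, each in duplicate.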

| SMILES | EC50 [nM] |
| --- | --- |
| O=C1CCc2cc(OCCN3CCC4(CC3)C(=O)Nc3ccc(Cl)cc34)cnc2N1[C@H]1C[C@H](O)C1 [Compound 267, 5-chloro-1′-[2-({7-oxo-8-[(trans)-3-hydroxycyclobutyl]-5,6,7,8-tetrahydro-1,8-naphthyridin-3-yl}oxy)ethyl]-1,2-dihydrospiro[indole-3,4′-piperidin]-2-one] | 6.63 |
| C[C@]1(O)C[C@@H](n2c(=O)cnc3cc(OCCN4CCC5(CC4)C(=O)Nc4ccc(Cl)cc45)cnc32)C1 [Compound 358, 5-chloro-1′-[2-({3-oxo-4-[(cis)-3-hydroxy-3-methylcyclobutyl]-3H,4H-pyrido[2,3-b]pyrazin-7-yl}oxy)ethyl]-1,2-dihydrospiro[indole-3,4′-piperidin]-2-one] | 24 |
| CS(=O)(=O)C1(c2ncc(OCCN3CCC4(CC3)C(=O)Nc3ccc(OC(F)F)cc34)cn2)CC1 [Compound 6, 5-(difluoromethoxy)-1′-(2-{[2-(1-methanesulfonylcyclopropyl)pyrimidin-5-yl]oxy}ethyl)-1,2-dihydrospiro[indole-3,4′-piperidin]-2-one] | 47.7 |
| CS(=O)(=O)C1(c2ncc(OCCN3CCC4(CC3)C(=O)Nc3ccc(C(F)F)cc34)cn2)CC1 [Compound 5, 5-(difluoromethyl)-1′-(2-{[2-(1-methanesulfonylcyclopropyl)pyrimidin-5-yl]oxy}ethyl)-1,2-dihydrospiro[indole-3,4′-piperidin]-2-one] | > 330 |
| CC1(O)CN(c2ncc(OCCN3CCC4(CC3)C(=O)Nc3ccc(C(F)F)cc34)cn2)C1 [Compound 395, 5-(difluoromethyl)-1′-(2-{[2-(3-hydroxy-3-methylazetidin-1-yl)pyrimidin-5-yl]oxy}ethyl)-1,2-dihydrospiro[indole-3,4′-piperidin]-2-one] | 137 |

Same assay, conditions: differentiated human podocytes, doxycycline-induced APOL1 G2, CellTiter-Glo; geometric mean of at least 2 runs; † = single run

| SMILES | EC50 [nM] |
| --- | --- |
| CS(=O)(=O)C1(c2ccc(OCCN3CCC4(CC3)C(=O)Nc3ccc(Cl)cc34)cc2)CC(O)C1 (stereo not drawn) [Compound 270, 5-chloro-1′-(2-{4-[(trans) or (cis)-3-hydroxy-1-methanesulfonylcyclobutyl]phenoxy}ethyl)-1,2-dihydrospiro[indole-3,4′-piperidin]-2-one] | 2.92 |
| CC(O)c1ncc(OCCN2CCC3(CC2)C(=O)Nc2ccc(C#N)cc23)cc1C(F)(F)F (single isomer, unassigned) [Compound 376, 1′-[2-({6-[(1S) or (1R)-1-hydroxyethyl]-5-(trifluoromethyl)pyridin-3-yl}oxy)ethyl]-2-oxo-1,2-dihydrospiro[indole-3,4′-piperidine]-5-carbonitrile] | 6.21 |
| CS(=O)(=O)C1(c2ccc(OCCN3CCC4(CC3)C(=O)Nc3ccc(Cl)cc34)cc2)CC(O)C1 (stereo not drawn) [Compound 269, 5-chloro-1′-(2-{4-[(cis) or (trans)-3-hydroxy-1-methanesulfonylcyclobutyl]phenoxy}ethyl)-1,2-dihydrospiro[indole-3,4′-piperidin]-2-one] | 30.4 |
| CC(c1ncc(OCCN2CCC3(CC2)C(=O)Nc2ccc(Cl)cc23)cn1)S(C)(=O)=O (single isomer, unassigned) [Compound 3, 5-chloro-1′-[2-({2-[(1R) or (1S)-1-methanesulfonylethyl]pyrimidin-5-yl}oxy)ethyl]-1,2-dihydrospiro[indole-3,4′-piperidin]-2-one] | 23.5 |
| CC(O)c1ncc(OCCN2CCC3(CC2)C(=O)Nc2ccc(C#N)cc23)cc1C(F)(F)F (single isomer, unassigned) [Compound 377, 1′-[2-({6-(1S) or (1R)-1-hydroxyethyl]-5-(trifluoromethyl)pyridin-3-yl}oxy)ethyl]-2-oxo-1,2-dihydrospiro[indole-3,4′-piperidine]-5-carbonitrile] | 24.4 |
| CC(c1ncc(OCCN2CCC3(CC2)C(=O)Nc2ccc(Cl)cc23)cn1)S(C)(=O)=O (single isomer, unassigned) [Compound 2, 5-chloro-1′-[2-({2-[(1S) or (1R)-1-methanesulfonylethyl]pyrimidin-5-yl}oxy)ethyl]-1,2-dihydrospiro[indole-3,4′-piperidin]-2-one] | 10.7 |
